Read-outs that look alike come from different tables or passages of the source.

The subject of one data set is tumor cell. Conditions: in vitro; cited from earlier work.
In data set [1] the test system is transplanted Harding-Passey melanomas. Also on record: species or system BALB/c mice. Conditions: mouse, in vivo. The protocol: The porphyrins of the present invention were tested for biodistribution and tumor uptake. BALB/c mice carrying transplanted Harding-[…] melanomas subcutaneously on the thigh or abdomen were given six intraperitoneal 0.5 mL injections over two days. The injection solutions contained 1 mg of compound/mL which is a total dose of 3 mg/mouse (approx. 150 μg porphyrin/g body weight or 32.2 μg B/g body weight). The compounds of formula II were completely water soluble and were allowed a 2 day clearance period post injection. The boron content was assayed by prompt gamma analysis using the gamma ray from the ^10 B(n,α)^7 Li reaction. Counts from the […] prompt-.tau.-ray are detected and analyzed using a narrow collimated thermal neutron beam from the Medical Research Reactor at Brookhaven National Laboratory. In this method the mice are dissected and whole organs or tissue samples (0.20-1.0 g) are measured for their boron content. […] Table 1 provides data for both the free base (compound of formula II wherein X is 2H) as well as the zinc chelate (compound of formula II wherein X is Zn), while Table 2 provides data for the free base. […] The long retention of porphyrins in tumor tissue can be exploited by waiting at least 4 days after it has cleared out of the blood before irradiation.

Regarding Na2 B12 H11 SH [BSH], in the data set on tumor cell, the “retention in tumor cell” value is reported as “does not stay in the tumor cell but is easily washed out”.
For “dipotassium 2,4-bis-[2-(1,2-dicarbaundecaborate(-1))ethenyl]deuteroporphyrin IX [FREE BASE]”, in data set [1], the “boron in the normal brain (in words)” value was “only a small amount of boron in the normal brain”; the “crossing of the blood-brain barrier” value was “does not cross the blood-brain barrier”; the “retention of boron in tumor and clearance from blood (in words)” value was “retention of boron in the tumor with clearance from the blood over time”; the “tumor to blood ratio (comparison)” value is “higher for the free base”. Also, the “uptake of boron into the tumor (in words)” value in data set [1] is recorded as “substantial uptake of boron into the tumor”. Further, the “tumor to blood ratio” value in data set [1] (2880 min) was “approximately 1:1”. For the same substance, the “tumor to blood ratio” value in data set [1] (5760 min) is recorded as “approx. 5:1”. In data set [1] (ip, 48 h), this substance yielded an uptake in blood of 15.3 ± 1.5 μgB/g TISSUE, an uptake in brain of 2.0 μgB/g TISSUE, an uptake in kidney of 16.8 μgB/g TISSUE and an uptake in liver of 38.0 ± 11.9 μgB/g TISSUE. In data set [1] (ip, 48 h), this substance registered an uptake in lung of 20.8 μgB/g TISSUE, an uptake in muscle of 3.9 μgB/g TISSUE, an uptake in spleen of 8.5 μgB/g TISSUE and an uptake in tumor of 18.7 ± 3.4 μgB/g TISSUE.

These data come from patent US4959356A, “Porphyrins for boron neutron capture therapy” (The United States of America as represented by the United …, priority 1989, dated 1990).
